Source: ChEMBL document CHEMBL1141740, “Studies on the Synthesis of Elegan-Type Linear Diterpenes: The Efficient Total Syntheses of Eleganolone, Eleganolone Acetate, Elegandiol, Eleganonal, and Epoxyeleganolone” (J Nat Prod, 1998)

Legend:
Assay type in all cases: functional, tissue-based
Conditions in all cases: Cavia porcellus
Ileum [1] = test: Relaxation activity in guinea pig ileum assessed as inhibition of acetylcholine-induced muscle contractions
Ileum [2] = test: Relaxation activity in guinea pig ileum assessed as inhibition of histamine-induced muscle contractions
Ileum [3] = test: Relaxation activity in guinea pig ileum assessed as relaxation of BaCl2-induced muscle contractions
Ileum [4] = test: Relaxation activity in guinea pig ileum assessed as relaxation of KCl-induced muscle contractions

IC50 (Ileum [1]) [µM] | IC50 (Ileum [2]) [µM] | IC50 (Ileum [3]) [µM] | IC50 (Ileum [4]) [µM] | Compound | Activity (Ileum [3]) | Activity (Ileum [4])
19.5 | 6.61 | 45.7 | 33.9 | CC(=O)OC/C=C(\C)CC/C=C(\C)CC/C=C(\C)CC(=O)C=C(C)C [ELEGANOLONE ACETATE] | Dose-dependent effect | Dose-dependent effect
25.1 | 14.5 | 45.7 | 18.6 | CC(C)=CC(=O)C/C(C)=C/CC/C(C)=C/CC/C(C)=C/CO [ELEGANOLONE] | Dose-dependent effect | Dose-dependent effect
